The Deep4Chem optical property database

Assay: photoluminescence quantum yield (fraction); solvent given as SMILES
[1] = in O=P(c1ccccc1)(c1ccccc1)c1ccccc1Oc1ccccc1P(=O)(c1ccccc1)c1ccccc1

## CC[N+]1=C(/C=C/C=C/C=C/C=C2/N(CCCCCC(=O)O)c3ccc(S(=O)(=O)[O-])cc3C2(C)C)C(C)(C)c2cc(S(=O)(=O)[O-])ccc21
In CO
  photoluminescence quantum yield: 0.52
In O
  photoluminescence quantum yield: 0.28

## CCC1=C(C)C2=Cc3c4ccccc4c4n3[B-](c3ccc5cc6ccccc6cc5c3)(Oc3ccccc3-4)[N+]2=C1C (stereo unspecified)
In CC#N
  photoluminescence quantum yield: 0.66
In CCCCCC
  photoluminescence quantum yield: 0.75
In Cc1ccccc1
  photoluminescence quantum yield: 0.68
In ClCCl
  photoluminescence quantum yield: 0.76

## c1ccc(-[c+]2c3ccccc3sc3ccccc32)cc1
In CC#N
  photoluminescence quantum yield: 0.02

## CN(C)CCCN1c2ccccc2CCc2ccccc21
In CC#N
  photoluminescence quantum yield: 0.012
In CO
  photoluminescence quantum yield: 0.01
In O
  photoluminescence quantum yield: 0.021

## N#CC(C#N)=Cc1nc2ccc(C#Cc3ccc(N(c4ccccc4)c4ccccc4)cc3)cc2s1
In Cc1ccccc1
  photoluminescence quantum yield: 0.07

## C/C(=C\c1ccc(Cl)cc1)c1nc2ccccc2o1
In C1CCCCC1
  photoluminescence quantum yield: 0.02
In CO
  photoluminescence quantum yield: 0.003

## COc1c2ccccc2c(OC)c2c1c1cccc(OC)c1n2C
In C1CCCCC1
  photoluminescence quantum yield: 0.39
In CC#N
  photoluminescence quantum yield: 0.4
In CO
  photoluminescence quantum yield: 0.39
In ClCCl
  photoluminescence quantum yield: 0.44

## CN(C)c1ccc2nc(-c3ccc(C=O)cc3)sc2c1
In C1CCCCC1
  photoluminescence quantum yield: 0.8
In CC#N
  photoluminescence quantum yield: 0.66
In CO
  photoluminescence quantum yield: 0.1
In ClC(Cl)Cl
  photoluminescence quantum yield: 0.85

## COc1cc(OC)c2c(c1)C(=O)c1ccccc1-2
In C1CCCCC1
  photoluminescence quantum yield: 0.026
In CC#N
  photoluminescence quantum yield: 0.0012
In CCO
  photoluminescence quantum yield: 0

## CCCCCCCCCC1(CCCCCCCCC)c2cc(C#Cc3ccc(/C=C/c4ccc(N(CCCCCCCC)CCCCCCCC)cc4)cc3)ccc2-c2ccc(C#Cc3ccc(/C=C/c4ccc(N(CCCCCCCC)CCCCCCCC)cc4)cc3)cc21
In Cc1ccccc1
  photoluminescence quantum yield: 0.61

## COc1ccc(-n2nc(C#N)c(NC3CCCCC3)n2)cc1
In CC#N
  photoluminescence quantum yield: 0.956

## CC(=O)c1c(N[C@@H](CS)C(=O)O)c2ccc(N(C)C)cc2oc1=O
In ClCCl
  photoluminescence quantum yield: 0.0025

## CC(C)(C)c1ccc2c(c1)sc1[n+]2[B-](F)(F)n2c(c3cccc4cccc2c43)=N1
In C1CCOC1
  photoluminescence quantum yield: 0.85
In CC#N
  photoluminescence quantum yield: 0.93
In CCCCCC
  photoluminescence quantum yield: 0.87
In Cc1ccccc1
  photoluminescence quantum yield: 0.86
In ClCCl
  photoluminescence quantum yield: 0.86

## CC(C)(C)c1cccc2c1oc1nc3oc4ccc(-n5c6ccccc6c6ccccc65)cc4c3cc12
In ClC(Cl)Cl
  photoluminescence quantum yield: 0.072

## COc1ccc(C2=CC(c3ccc(OC)cc3)=[O+][B-](C(C)=O)(C(C)=O)O2)cc1
In CC#N
  photoluminescence quantum yield: 0.7
In ClC(Cl)(Cl)Cl
  photoluminescence quantum yield: 1

## COc1ccc2cc(C3=[N+]4C(=Nc5c(-c6ccc7ccccc7c6)c(Br)c(-c6ccc7cc(OC)ccc7c6)n5[B-]4(F)F)C(c4ccc5ccccc5c4)=C3Br)ccc2c1
In ClCCl
  photoluminescence quantum yield: 0

## COc1cc2c3c4c(c5ccc(C(C)(C)C)cc5c5c(OC)cc(OC)c(c2c(OC)c1OC)c45)=[N+]1C3=Nc2c3c4cc(OC)c(OC)c(OC)c4c4c(OC)cc(OC)c5c6cc(C(C)(C)C)ccc6c(c3c54)n2[B-]1(F)F
In Cc1ccccc1
  photoluminescence quantum yield: 0.13

## O=S1(=O)C(c2cccs2)=C(c2cccs2)c2ccccc21
In C1CCOC1
  photoluminescence quantum yield: 0.006

## C[C@]12SC(=O)C=C1c1nc(-c3ccc(O)cc3)[nH]c1C1=CC(=O)S[C@@]12C
In CC#N
  photoluminescence quantum yield: 0.16

## CCC1=C(C2=C(C3=C(CC)S(=O)(=O)c4ccccc43)C(F)(F)C(F)(F)C2(F)F)c2ccccc2S1(=O)=O
In C1COCCO1
  photoluminescence quantum yield: 0

## CCOC(=O)C1=C(C(=O)OC)N2CCc3cc(OC)c(OC)cc3C2=C[C@H](c2ccc(Cl)cc2)C12c1ccccc1-c1ccccc12
In ClCCl
  photoluminescence quantum yield: 0.00105

## Oc1ccccc1/C=N/CC/N=C/c1ccccc1O
In CC#N
  photoluminescence quantum yield: 0.053

## c1ccc(-c2nc(-c3ccccc3)nc(-c3ccc(-n4c5ccccc5c5c6c(ccc54)-c4ccccc4C6(c4ccccc4)c4ccccc4)cc3)n2)cc1
[1]
  photoluminescence quantum yield: 0.979

## COC(=O)[C@@]12N=N[C@@](C(=O)OC)(C3[C@H]1C3(C)C)[C@H]1[C@@H]2C1(C)C (stereo partly specified)
In CC#N
  photoluminescence quantum yield: 0.041

## CCC1=C(C)C2=Cc3c4ccccc4c4n3[B-](c3ccncc3)(Oc3ccccc3-4)[N+]2=C1C=Cc1ccc(OC)cc1 (stereo unspecified)
In CC#N
  photoluminescence quantum yield: 0.37
In CCCCCC
  photoluminescence quantum yield: 0.36
In Cc1ccccc1
  photoluminescence quantum yield: 0.35
In ClCCl
  photoluminescence quantum yield: 0.35

## CCN(CC)c1ccc2c(c1)oc(=O)c1cc3c(-c4ccccc4)nn(C)c3nc12
In C1CCCCC1
  photoluminescence quantum yield: 0.338
In CCOC(C)=O
  photoluminescence quantum yield: 0.202
In CN(C)C=O
  photoluminescence quantum yield: 0.015
In CO
  photoluminescence quantum yield: 0.002
In ClCCl
  photoluminescence quantum yield: 0.292

## CCC(C)(C)c1ccc(-c2ccc3c(c2)C(CCOC)(CCOC)c2cc(C(C)(C)CC)ccc2-3)cc1
In C1CCCCC1
  photoluminescence quantum yield: 0.71

## CCN(CC)c1ccc2cc(/C(Cl)=C/C=C/C(=C(C#N)C#N)c3ccc(N(c4ccccc4)c4ccccc4)cc3)c(=O)oc2c1
In CC(C)=O
  photoluminescence quantum yield: 0.015
In CCOC(C)=O
  photoluminescence quantum yield: 0.028
In CN(C)C=O
  photoluminescence quantum yield: 0.002
In CS(C)=O
  photoluminescence quantum yield: 0.003
In Cc1ccccc1
  photoluminescence quantum yield: 0.098
In ClCCl
  photoluminescence quantum yield: 0.018

## CC/[NH+]=c1\cc2oc3cc(NCCN)c4ccccc4c3nc-2cc1C
In CCO
  photoluminescence quantum yield: 0.27
In O
  photoluminescence quantum yield: 0.18

## CCn1c(-c2ccc(-c3ccc(-c4ccc(-c5n(CC)c6ccccc6[n+]5CC)cc4)c(C)c3)cc2)[n+](CC)c2ccccc21
In O
  photoluminescence quantum yield: 0.71

## CCN(CC)c1ccc2cc(-c3nc4cc(C(=O)Nc5ccc(C)cc5[N+](=O)[O-])ccc4o3)c(=O)oc2c1
In ClCCl
  photoluminescence quantum yield: 0.43

## Cc1cc(C)c(C2=C3C=C(/C=C/C(=O)OCc4ccccc4)C=[N+]3[B-](F)(F)n3cccc32)c(C)c1
In ClCCl
  photoluminescence quantum yield: 0.36

## N#CC(C#N)=Cc1ccc(-c2cccc(-c3nc4ccccc4s3)c2O)s1
In CCO
  photoluminescence quantum yield: 0.0956
In ClCCl
  photoluminescence quantum yield: 0.152
In O
  photoluminescence quantum yield: 0.01

## O=C1c2cccc3cc4ccccc4c(c23)C(=O)N1Cc1ccccn1
In C1CCOC1
  photoluminescence quantum yield: 0.83
In CCCCCC
  photoluminescence quantum yield: 0.61
In CCO
  photoluminescence quantum yield: 0.91
In Cc1ccccc1
  photoluminescence quantum yield: 0.69
In ClCCl
  photoluminescence quantum yield: 0.93

## COc1ccc(C2=c3sc(-c4ccc(OC)cc4)cc3=[N+]3C2=Nc2c(-c4ccc(OC)cc4)c4sc(-c5ccc(OC)cc5)cc4n2[B-]3(F)F)cc1
In ClC(Cl)Cl
  photoluminescence quantum yield: 0.1

## COc1ccc(C2=N/C(=C\c3ccccc3)C(=O)O2)cc1OC
In C1COCCO1
  photoluminescence quantum yield: 0.02

## C(S/C=C/c1ccc(-c2ccc(/C=C/SC=C3CCCCC3)cc2)cc1)=C1CCCCC1
In ClCCl
  photoluminescence quantum yield: 0.238

## CN(C)c1ccc(-c2ccc(-c3cc(-c4ccccc4)c(-c4ccccc4)c(-c4ccccc4)c3-c3ccccc3)s2)cc1
In ClC(Cl)Cl
  photoluminescence quantum yield: 0.35

## Nc1cccc2cn[nH]c12
In CC#N
  photoluminescence quantum yield: 0.3
In CO
  photoluminescence quantum yield: 0.11
In O
  photoluminescence quantum yield: 0.07

## C(=C1c2ccccc2-c2ccccc21)c1ccc(C=C2c3ccccc3-c3ccccc32)cc1
In C1CCOC1
  photoluminescence quantum yield: 0.0003

## Cc1ccc(-c2ccc(/C=C/c3ccc([N+](=O)[O-])cc3)cn2)nc1
In CC#N
  photoluminescence quantum yield: 0.045

## Oc1ccc2ccccc2c1/C=N/C1CCCCC1/N=C/c1c(O)ccc2ccccc12 (stereo unspecified)
In CC#N
  photoluminescence quantum yield: 0.078

## Nc1cc2nc3cc(Cl)c(Cl)cc3nc2cc1N
In CCO
  photoluminescence quantum yield: 0.1

## CC(=O)Nc1ccc(C2=C/C(=C\c3ccc(C#N)cc3)C(=O)O2)cc1
In C1COCCO1
  photoluminescence quantum yield: 0.437

## COc1cc(C=C(C#Cc2ccccc2)C#Cc2ccccc2)c(OC)cc1C=C(C#Cc1ccccc1)C#Cc1ccccc1
In ClC(Cl)Cl
  photoluminescence quantum yield: 0.34

## O=[N+]([O-])c1ccc(C#Cc2ccc3ccccc3c2)cc1
In ClC(Cl)Cl
  photoluminescence quantum yield: 0.005
In ClCCl
  photoluminescence quantum yield: 0.006

## CCCCCCC1(CCCCCC)c2cc(-c3nc(-c4ccc5c(c4)C(CCCCCC)(CCCCCC)c4cc(N6c7ccccc7Sc7ccccc76)ccc4-5)nc(-c4ccc5c(c4)C(CCCCCC)(CCCCCC)c4cc(N6c7ccccc7Sc7ccccc76)ccc4-5)n3)ccc2-c2ccc(N3c4ccccc4Sc4ccccc43)cc21
In C1CCOC1
  photoluminescence quantum yield: 0.01
In CCCCCC
  photoluminescence quantum yield: 0.04
In Cc1ccccc1
  photoluminescence quantum yield: 0.02
In ClCCl
  photoluminescence quantum yield: 0.003

## O=c1c2ccccc2sc2ccccc12
In C1CCOC1
  photoluminescence quantum yield: 0.012
In C1COCCO1
  photoluminescence quantum yield: 0.015
In CC#N
  photoluminescence quantum yield: 0.066
In CC(C)=O
  photoluminescence quantum yield: 0.024
In CC(C)O
  photoluminescence quantum yield: 0.14
In CCCCOC(C)=O
  photoluminescence quantum yield: 0.0078
In CO
  photoluminescence quantum yield: 0.25
In OCCO
  photoluminescence quantum yield: 0.41
In c1ccccc1
  photoluminescence quantum yield: 0.012

## COc1ccc2cc(/C=C/C3=CC(c4ccccc4)=[O+][B-](F)(F)O3)ccc2c1
In ClCCl
  photoluminescence quantum yield: 0.43

## O=S1(=O)c2ccc(-c3c4ccccc4cc4ccccc34)cc2-c2cc(-c3c4ccccc4cc4ccccc34)ccc21
In C1CCCCC1
  photoluminescence quantum yield: 0.39
In CC#N
  photoluminescence quantum yield: 0.13
In ClCCl
  photoluminescence quantum yield: 0.24

## CCCCn1c(-c2ccc(-c3nnc(-c4ccc(-c5nc6c7ccccc7c7ccccc7c6n5CCCC)cc4)o3)cc2)nc2c3ccccc3c3ccccc3c21
In ClCCl
  photoluminescence quantum yield: 0.78

## CC(C)(C)c1ccc2c(c1)c1cc(C(C)(C)C)ccc1n2-c1ccc(N(c2ccc(-c3ccc(-c4ccc(N(c5ccc(-n6c7ccc(C(C)(C)C)cc7c7cc(C(C)(C)C)ccc76)cc5)c5ccc(-n6c7ccc(C(C)(C)C)cc7c7cc(C(C)(C)C)ccc76)cc5)cc4)c4nsnc34)cc2)c2ccc(-n3c4ccc(C(C)(C)C)cc4c4cc(C(C)(C)C)ccc43)cc2)cc1
In ClCCl
  photoluminescence quantum yield: 0.05

## CCn1c2ccccc2c2c(C#N)c3c(ccc4c3cnn4C)nc21
In CCOC(C)=O
  photoluminescence quantum yield: 0.45

## COc1ccccc1C1=[N+]2C(=C(c3ccccc3)c3c4c(c(-c5ccccc5OC)n3[B-]2(F)F)C2C=CC4CC2)C2=C1C1C=CC2CC1 (stereo unspecified)
In ClCCl
  photoluminescence quantum yield: 0.87

## CC1(C)c2ccccc2N(c2cc[n+]3c(c2)-c2ccccc2O[B-]3(F)F)c2ccccc21
[1]
  photoluminescence quantum yield: 0.65

## C1=Cc2ccc(N(c3ccccc3)c3cccc4ccccc34)cc2C2(c3cc(N(c4ccccc4)c4cccc5ccccc45)ccc31)c1ccccc1-c1ccccc12
In ClCCl
  photoluminescence quantum yield: 0.58
